Measurements published in ChEMBL document CHEMBL3352476, “Antimicrobial Constituents of the Mature Carpels of Manglietiastrum sinicum” (J Nat Prod, 2014).
Values after ≈ are worked out from the molar mass of the structure shown. Structures can show the parent of a compound that is named as a salt. Active and inactive are the calls of the source. The rule behind the calls is not given here.

Columns and labels:
[1] = Cytotoxicity against human HL60 cells by MTT assay; type: functional, cell-based; details: HL-60
Platelet [2] = test: Inhibition of ADP-induced platelet aggregation in rabbit platelet rich plasma at 200 ug/ml preincubated for 10 mins before addition of inducer by aggregometry; type: functional; details: Oryctolagus cuniculus
Staphylococcus aureus [3] = test: Antimicrobial activity against methicillin-resistant Staphylococcus aureus 98 by 2-fold dilution assay; type: functional
[4] = Cytotoxicity against human SSMC-7721 cells by MTT assay; type: functional, cell-based
Staphylococcus aureus [5] = test: Antimicrobial activity against Staphylococcus aureus by 2-fold dilution assay; type: functional
Staphylococcus aureus [6] = test: Antimicrobial activity against methicillin-resistant Staphylococcus aureus 82 by 2-fold dilution assay; type: functional
MCF7 = test: Cytotoxicity against human MCF7 cells by MTT assay; type: functional, cell-based
Staphylococcus aureus [7] = test: Antimicrobial activity against methicillin-resistant Staphylococcus aureus 92 by 2-fold dilution assay; type: functional
SW480 = test: Cytotoxicity against human SW480 cells by MTT assay; type: functional, cell-based
A549 = test: Cytotoxicity against human A549 cells by MTT assay; type: functional, cell-based
Platelet [8] = test: Inhibition of PAF-induced platelet aggregation in rabbit platelet rich plasma at 200 ug/ml preincubated for 10 mins before addition of inducer by aggregometry; type: functional; details: Oryctolagus cuniculus
Staphylococcus aureus [9] = test: Antimicrobial activity against methicillin-resistant Staphylococcus aureus 331 by 2-fold dilution assay; type: functional
Platelet [10] = test: Inhibition of arachidonic acid-induced platelet aggregation in rabbit platelet rich plasma at 200 ug/ml preincubated for 10 mins before addition of inducer by aggregometry; type: functional; details: Oryctolagus cuniculus
Staphylococcus aureus [11] = test: Antimicrobial activity against Staphylococcus aureus by agar plate punch assay; type: functional

| SMILES | IC50 [1] [µM] | inhibition (Platelet [2]) | MIC (Staphylococcus aureus [3]) [µM] | IC50 [4] [µM] | MIC (Staphylococcus aureus [5]) [µM] | MIC (Staphylococcus aureus [6]) [µM] | IC50 (MCF7) [µM] | MIC (Staphylococcus aureus [7]) [µM] | IC50 (SW480) [µM] | IC50 (A549) [µM] | inhibition (Platelet [8]) | MIC (Staphylococcus aureus [9]) [µM] | inhibition (Platelet [10]) | diameter of the inhibition zone (DIZ) (Staphylococcus aureus [11]) [mm] |
| --- | --- | --- | --- | --- | --- | --- | --- | --- | --- | --- | --- | --- | --- | --- |
| COc1cc([C@H]2O[C@@H](c3ccc4c(c3)OCO4)[C@H](C)[C@@H]2C)cc(O)c1OC | 39.8 | inactive | 34 (≈ 12.7 µg/mL) | > 40 | 67 (≈ 25 µg/mL) | 67 (≈ 25 µg/mL) | 14 | 67 (≈ 25 µg/mL) | 19.1 | 27.4 | inactive | 130 (≈ 48.4 µg/mL) | inactive |  |
| COC1=CC2(C=C(OC)C1=O)C[C@@H](C)[C@H](C)Cc1cc3c(c(OC)c12)OCO3 | > 40 | inactive | 16 (≈ 6.18 µg/mL) | > 40 | 130 (≈ 50.2 µg/mL) | 65 (≈ 25.1 µg/mL) | > 40 | 65 (≈ 25.1 µg/mL) | > 40 | > 40 | inactive | 32 (≈ 12.4 µg/mL) | inactive |  |
| COc1cc([C@@H]2O[C@H](c3ccc4c(c3)OCO4)[C@H](C)[C@H]2C)cc(O)c1OC | > 40 | inactive | 67 (≈ 25 µg/mL) | > 40 | 67 (≈ 25 µg/mL) | 67 (≈ 25 µg/mL) | > 40 | 67 (≈ 25 µg/mL) | > 40 | > 40 | inactive | 34 (≈ 12.7 µg/mL) | inactive |  |
| COc1cc(C(=O)O[C@@H](c2cc(O)c(OC)c(OC)c2)[C@H](C)C(C)=O)cc(O)c1OC | > 40 | inactive |  | > 40 |  |  | > 40 |  | > 40 | > 40 | inactive |  | inactive | <10 |
| COc1cc2c(cc1O)[C@@H]1O[C@H](c3cc4c(c(OC)c3-2)OCO4)[C@H](C)[C@@H]1C | 17 | inactive | 34 (≈ 12.6 µg/mL) | 38.2 | 68 (≈ 25.2 µg/mL) | 140 (≈ 51.9 µg/mL) | > 40 | 68 (≈ 25.2 µg/mL) | > 40 | > 40 | inactive | 140 (≈ 51.9 µg/mL) | inactive |  |
| COc1cc(C(=O)O[C@@H](c2cc(OC)c(OC)c(OC)c2)[C@H](C)C(C)=O)ccc1O | > 40 | inactive |  | > 40 |  |  | > 40 |  | > 40 | > 40 | inactive |  | inactive | <10 |
| COc1cc([C@@H]2O[C@H](c3cc(O)c(OC)c(OC)c3)[C@@H](C)[C@@H]2C)ccc1O | > 40 | inactive | 130 (≈ 48.7 µg/mL) | > 40 | 130 (≈ 48.7 µg/mL) | 67 (≈ 25.1 µg/mL) | > 40 | 130 (≈ 48.7 µg/mL) | > 40 | > 40 | inactive | 130 (≈ 48.7 µg/mL) | inactive |  |
| CN[C@H](CC(C)C)C(=O)N[C@H]1C(=O)N[C@@H](CC(N)=O)C(=O)N[C@H]2C(=O)N[C@H]3C(=O)N[C@H](C(=O)N[C@H](C(=O)O)c4cc(O)cc(O)c4-c4cc3ccc4O)[C@H](O)c3ccc(c(Cl)c3)Oc3cc2cc(c3O[C@@H]2O[C@H](CO)[C@@H](O)[C@H](O)[C@H]2O[C@H]2C[C@](C)(N)[C@H](O)[C@H](C)O2)Oc2ccc(cc2Cl)[C@H]1O [VANCOMYCIN HYDROCHLORIDE] |  |  | 0.54 |  | 1.1 | 0.54 |  | 0.54 |  |  |  | 0.54 |  |  |
